Laboratory results reported in paper PMC7125978 (Bioorganic & Medicinal Chemistry, 2010).
pEC50: −log10 of the molar value.

Legend:
several viruses = assay type: cell-based
uninfected cells = details: for Cytotoxicity MCC: minimum cytotoxic concentration, microscopically detectable alteration of cell morphology
CEM cell extract = experiment: Prodrug conversion in crude cell extracts; assay type: in vitro ADME, human; details: for efficiency of conversion among the prodrugs: similar trend in HeLa and MDCK cell extracts
[1] = test system: Respiratory syncytial virus (HeLa); assay type: cell-based, respiratory syncytial virus (RSV) strain Long; details: relative to ribavirin (1)
HCV (Huh-5–2) = experiment: HCV subgenomic replicon luciferase assay in Huh 5-2 cells; assay type: cell-based, hepatitis C virus (HCV)
[2] = test system: Influenza A/H3N2 subtype (MDCK); assay type: cell-based, influenza virus type A (H3N2)
Punta toro virus (Vero) = experiment: microbe, parasite or virus in culture; assay type: cell-based
Vaccinia virus (HEL) = assay type: cell-based, vaccinia virus Lederle strain
[3] = cell extract, 37 °C, after 60 min of incubation

NC(=O)c1ncn([C@@H]2O[C@H](COP(=O)(N[C@@H](Cc3ccccc3)C(=O)OCc3ccccc3)Oc3cccc4ccccc34)[C@@H](O)[C@H]2O)n1 (stereo partly drawn) [Compound 14, ribavirin-5’-[1-naphthyl(benzoxy-L-phenylalaninyl)] phosphate]
antiviral activity, all the viruses tested (several viruses): no or borderline activity
Cytotoxicity MCC (uninfected cells): >100 µM
conversion of both diastereoisomers (not separable) to metabolite tR 20.2 min (CEM cell extract; CEM cell extract, 37 °C, within 20 min): 80%
efficiency of conversion among the prodrugs (CEM cell extract; CEM cell extract): most efficiently converted

C[C@H](NP(=O)(OC[C@H]1O[C@@H](n2cnc(C(N)=O)n2)[C@H](O)[C@@H]1O)Oc1cccc2ccccc12)C(=O)OCc1ccccc1 (stereo partly drawn) [Compound 13, ribavirin-5′-[1-naphthyl(benzoxy-L-alaninyl)] phosphate]
Cytotoxicity MCC (uninfected cells): >100 µM
fold less active than ribavirin, respiratory syncytial virus [1]: about threefold
potency relative to ribavirin, HCV subgenomic replicon replication (HCV (Huh-5–2)): equipotent to ribavirin
fold lower potency than ribavirin, influenza virus [2]: ~2 fold
pEC50 (Punta toro virus (Vero); Punta Toro virus, Vero, read-out: Antiviral activity EC50, Punta toro virus (Vero)): < 4.00
conversion of isomer tR 19.3 min to metabolite tR 20.2 min (CEM cell extract; cell extract, 37 °C, before second isomer (tR 19.0 min) started to be converted): ≥ 95%

NC(=O)c1ncn([C@@H]2O[C@H](CO)[C@@H](O)[C@H]2O)n1 [Ribavirin, 1-β-D-ribofuranosyl-1,2,4-triazole-3-carboxamide, reference compound]
toxicity to uninfected cells (uninfected cells; at 100 μM): non-toxic
Cytotoxicity MCC (uninfected cells): >100 µM

NC(=O)c1ncn([C@@H]2O[C@H](COP(=O)(NCC(=O)OCc3ccccc3)Oc3cccc4ccccc34)[C@@H](O)[C@H]2O)n1 (stereo partly shown) [Compound 15]
fold superior to ribavirin, vaccinia virus replication (Vaccinia virus (HEL)): 3–5 fold
Cytotoxicity MCC (uninfected cells): >100 µM
fold less active than ribavirin, respiratory syncytial virus [1]: about threefold
fold superior to ribavirin, Punto Toro virus replication (Punta toro virus (Vero); relative to ribavirin): 3–5 fold
efficiency of conversion among the prodrugs (CEM cell extract; CEM cell extract): least efficiently converted
conversion of isomer tR 18.8 min to tR 20.2 (CEM cell extract; [3]): 10%
levels of isomer tR 18.5 (CEM cell extract; [3]): virtually unaltered
